Experimental data published in US20240418701A1, “SINGLE MOLECULE IDEN[…] A REACTIVE HETERO-NANOPORE” (priority 2021, published 2024).
Several values for one entry are separate records, joined by “and”; a condition that tells them apart may be missing. Equal entries are not always repeated.

Columns and labels:
[1] = target: T1, MspA-PBA (phenylboronic acid modified hetero-octameric (N90C)1(M2)7 MspA) (Mycolicibacterium smegmatis, UniProt A0QR29, D117C/D118N/D120N/D145R/D161R/E166K); experiment: Single channel recording of L-Sorbose binding to MspA-PBA nanopore; parameters: species or system Mycobacterium smegmatis; settings: for 1/τoff Mean / 1/τon Mean / Amplitude of L-Sorbose events, Current, Mean: N=3
T1 construct: H6 (hexa-histidine) (C); 3-(maleimide) phenylboronic acid (MPBA) adduct on the thiol of Cys90; made in house; host or cells: E. coli BL21 (DE3) pLysS, co-expression from pETDuet-1

[2] = target: T2, octameric M2 MspA-D16H6 (Mycolicibacterium smegmatis, UniProt A0QR29, D117N/D118N/D120N/D145R/D161R/E166K); experiment: L-Sorbose sensing by octameric M2 MspA-D16H6 (control without PBA); type: binding, Mycobacterium smegmatis; settings: L-Sorbose 50 mM in cis, +160 mV
T2 construct: D16 (16 consecutive aspartic acids) (C); H6 (hexa-histidine) (C); made in house; host or cells: E. coli BL21 (DE3) pLysS, pET-30a(+)
T2 sequence (A0QR29 other isoform, or with tags, fused parts or gaps D117N/D118N/D120N/D145R/D161R/E166K): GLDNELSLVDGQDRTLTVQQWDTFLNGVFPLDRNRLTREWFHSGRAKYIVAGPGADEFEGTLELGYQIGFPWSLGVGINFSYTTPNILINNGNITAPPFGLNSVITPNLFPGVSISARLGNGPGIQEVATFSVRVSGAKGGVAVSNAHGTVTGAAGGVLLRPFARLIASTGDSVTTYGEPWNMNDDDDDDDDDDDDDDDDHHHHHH
Description: FIG. 11: L-Sorbose sensing by an octameric M2 MspA-D16H6. L-Sorbose sensing was performed with an octameric M2 MspA-D16H6 in a 1.5 M KCl, 10 mM MOPS, pH7.0 buffer. A +160 mV bias was continually applied.
L-Sorbose is a monosaccharide ketose. It exists in all living species, ranging from bacteria to human^50. The commercial production of vitamin C (ascorbic acid) often begins with L-Sorbose^51. To further verify the existence of a PBA in the lumen of the pore, MspA-PBA was used to sense L-Sorbose. The measurement was performed with a single MspA-PBA and a 1.5 M KCl, 10 mM MOPS, pH 7.0 buffer with the continuous application of a +160 m V bias. The addition of L-Sorbose to cis to a 10 mM final concentration resulted immediately in the consecutive appearance of long residing resistive pulse events (FIGS. 1d-1f, Supplementary Video 1). […] In this way, it was confirmed that the introduction of a PBA to the pore lumen is critical for the generation of saccharide sensing events.
The measurement device is composed of two custom-made polyformaldehyde chambers separated by a ˜20 μm-thick Teflon film with a drilled aperture (˜100 μm in diameter). Before the measurement, the aperture was first treated with 0.5% (v/v) hexadecane in pentane and set for evaporation of the pentane. […] All events were detected by the “single channel research” function in Clampfit 10.7. […]

[3] = L-Sorbose 400 μM in cis, +160 mV
[4] = L-Sorbose 800 μM in cis, +160 mV
[5] = L-Sorbose 1200 μM in cis, +160 mV
[6] = L-Sorbose 1600 μM in cis, +160 mV
[7] = L-Sorbose 2000 μM in cis, +160 mV

## O=C(CO)[C@@H](O)[C@H](O)[C@@H](O)CO [L-Sorbose, L-(−)-Sorbose]
[1]; 40 mV, L-Sorbose 5 mM in cis
  Amplitude of L-Sorbose events, Current, Pore1: 29.3 ± 0.0005 pA
  Amplitude of L-Sorbose events, Current, Pore2: 29.05 ± 0.0005 pA
  Amplitude of L-Sorbose events, Current, Pore3: 29.2 ± 0.002 pA
  1/τoff Mean: 5.06E−04 ms^−1
  1/τon Mean: 7.9E−04 ms^−1
  Amplitude of L-Sorbose events, Current, Mean: 29.2 pA
[1]; 70 mV, L-Sorbose 5 mM in cis
  Amplitude of L-Sorbose events, Current, Pore1: 54.5 ± 0.010 pA
  Amplitude of L-Sorbose events, Current, Pore2: 52.7 ± 0.0008 pA
  Amplitude of L-Sorbose events, Current, Pore3: 52.5 ± 0.0008 pA
  1/τoff Mean: 4.3E−04 ms^−1
  1/τon Mean: 7.4E−04 ms^−1
  Amplitude of L-Sorbose events, Current, Mean: 53.08 pA
[1]; 100 mV, L-Sorbose 5 mM in cis
  Amplitude of L-Sorbose events, Current, Pore1: 74.6 ± 0.002 pA
  Amplitude of L-Sorbose events, Current, Pore2: 73.2 ± 0.009 pA
  Amplitude of L-Sorbose events, Current, Pore3: 73.3 ± 0.002 pA
  1/τoff Mean: 4.04E−04 ms^−1
  1/τon Mean: 8.7E−04 ms^−1
  Amplitude of L-Sorbose events, Current, Mean: 73.7 pA
[1]; 130 mV, L-Sorbose 5 mM in cis
  Amplitude of L-Sorbose events, Current, Pore1: 91.6 ± 0.003 pA
  Amplitude of L-Sorbose events, Current, Pore2: 90.3 ± 0.004 pA
  Amplitude of L-Sorbose events, Current, Pore3: 90.3 ± 0.004 pA
  1/τoff Mean: 3.8E−04 ms^−1
  1/τon Mean: 8.4E−04 ms^−1
  Amplitude of L-Sorbose events, Current, Mean: 90.8 pA
[1]; 160 mV, L-Sorbose 5 mM in cis
  Amplitude of L-Sorbose events, Current, Pore1: 107.7 ± 0.005 pA
  Amplitude of L-Sorbose events, Current, Pore2: 104.9 ± 0.006 pA
  Amplitude of L-Sorbose events, Current, Pore3: 105.3 ± 0.006 pA
  1/τoff Mean: 2.9E−04 ms^−1
  1/τon Mean: 8.5E−04 ms^−1
  Amplitude of L-Sorbose events, Current, Mean: 105.9 pA
[1]; 190 mV, L-Sorbose 5 mM in cis
  Amplitude of L-Sorbose events, Current, Pore1: 122.9 ± 0.007 pA
  Amplitude of L-Sorbose events, Current, Pore2: 116.7 ± 0.008 pA
  Amplitude of L-Sorbose events, Current, Pore3: 120.7 ± 0.010 pA
  1/τoff Mean: 2.9E−04 ms^−1
  1/τon Mean: 8.3E−04 ms^−1
  Amplitude of L-Sorbose events, Current, Mean: 120.13 pA
[1]; 220 mV, L-Sorbose 5 mM in cis
  Amplitude of L-Sorbose events, Current, Pore1: 143.6 ± 0.02 pA
  Amplitude of L-Sorbose events, Current, Pore2: 132.9 ± 0.02 pA
  Amplitude of L-Sorbose events, Current, Pore3: 137.2 ± 0.013 pA
  1/τoff Mean: 3.4E−04 ms^−1
  1/τon Mean: 8.07E−04 ms^−1
  Amplitude of L-Sorbose events, Current, Mean: 137.9 pA
[1]; +160 mV, L-Sorbose 10 mM in cis
  blockage amplitude (ΔI) / current drop of L-Sorbose sensing events: ~100 pA and ~102 pA
[1]; [3]
  1/τoff Mean: 2.9E−04 ms^−1
  1/τon Mean: 5.10E−05 ms^−1
[1]; [4]
  1/τoff Mean: 2.9E−04 ms^−1
  1/τon Mean: 1.03E−04 ms^−1
[1]; [5]
  1/τoff Mean: 3.08E−04 ms^−1
  1/τon Mean: 1.7E−04 ms^−1
[1]; [6]
  1/τoff Mean: 3.11E−04 ms^−1
  1/τon Mean: 2.2E−04 ms^−1
[1]; [7]
  1/τoff Mean: 2.9E−04 ms^−1
  1/τon Mean: 3.07E−04 ms^−1
[1]; −40 mV, L-Sorbose 5 mM in cis
  1/τoff Mean: 5.01E−04 ms^−1
  1/τon Mean: 7.6E−04 ms^−1
[2]
  resistive pulse events with M2 MspA: failed to cause any resistive pulse events
